What is called CC50 is the concentration at which the toxic effect on the cells reaches its halfway point.

The subject of one series is E. coli. Briefly: microbe, parasite or virus in culture. The method in brief:
(§1)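 Broth microdilution in MHB, 2-fold 12-point series from 128 or 64 down to 0.06 or 0.03 μg mL^−1, 5 × 10^5 CFU mL^−1. Extra runs in CAMHB per CLSI and in MHB with 1% agarose; n ≥ 6.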

In the next series the test system is E. coli K12 MG1655. The series can be described thus: ATP release, BacTiter-Glo luminescence. In kind it is cell-based, Escherichia coli. The conditions noted are these: E. coli K12, X = xMIC, 24 Y values. On the procedure: ATP was measured using the BacTiter-Glo^TM Microbial Cell Viability Assay (Promega) following the manufacturer’s instructions. The assay was performed for three biological replicates at 37 °C, with luminescence recorded using a Tecan Infinite M1000 Pro plate reader. The fold reduction of ATP was calculated as: Fold reduction ATP = 1 − (Ltreat − Lmedia/Lcontrol − Lmedia); where Ltreat is the luminescence of treated cells, Lmedia is the luminescence of CAMHB without cells, and Lcontrol is the luminescence of untreated cells. Resultant graphs show mean (n = 7) and std error for each data point, prepared in Prism 8. DMSO was included as a control as piperacillin was solubilized in DMSO, with final assay concentration of 2.5%.

Series [1] has as its system human erythrocytes (HRBC). In kind it is cell-based.
A further series has as its system C. albicans. The series can be described thus: microbe, parasite or virus in culture. The conditions noted are these: for MIC: Candida albicans.
The test system of a further series is P. aeruginosa. The series can be described thus: microbe, parasite or virus in culture. The method in brief: as §1
Another series concerns C. neoformans. The series can be described thus: microbe, parasite or virus in culture. To be noted: for MIC: Cryptococcus neoformans, ATCC208821, read-out: BMD MIC, C. neoformans ATCC 208821 H99.
In a further series the test system is K. pneumoniae. The series can be described thus: microbe, parasite or virus in culture. Put shortly: as §1
The subject of the next series is S. enterica Typhi. Briefly: microbe, parasite or virus in culture. To be noted: Typhi. Put shortly: as §1
The subject of the next series is A. baumannii. The series can be described thus: microbe, parasite or virus in culture. Put shortly: as §1
In a further series the test system is L. monocytogenes. The series can be described thus: microbe, parasite or virus in culture. Put shortly:
as §1

Series [2] has as its system HEK-293 human embryonic kidney cells. The series can be described thus: in vitro. On the procedure:
(§2) HEK-293 human embryonic kidney cells (ATCC CRL-1573), HepG2 liver hepatocellular carcinoma cells (ATCC HB-8065), and HK-2 human kidney proximal tubule cells (ATCC CRL-2190) cell lines were purchased from ATCC. Cytotoxicity of arenicin-3 variants was determined using the Alamar Blue (resazurin; Sigma-Aldrich, Cat # R7017), with 1% FBS for HK-2 and 10% FBS for HEK-293, and HepG2[40]. Cells were seeded as 2000 cells per well in black wall clear bottom 384-well plates (Corning®, Costar®, Cat # 3712). The cells were incubated for 24 h at 37 °C, 5% CO2. Then peptides were added into each cell containing well. After 24 h incubation, 5 μM resazurin were added per well and incubated at 37 °C for 2 h. Then the fluorescence intensity (FI) was read using a Polarstar® Omega plate reader with excitation/emission 560/590 and CC50 values were determined using Prism 8 following curve fitting and applying the following equation: Percentageviability = (FITEST-FINegative/FIUNTREATED-FINegative)×100.
(§3) Hemolytic activity was measured against isolated human erythrocytes from anonymously donated fresh human blood. Isolated erythrocytes were adjusted to 1 × 10^9 blood cells mL^−1 in phosphate-buffered saline (PBS, pH 7.4), added to the wells of NUNC polypropylene round-bottom 96-well plates (Sigma-Aldrich, Cat # P6866) then up to 300 μg mL^−1 of compound was added per well and incubated for 3 h at 37 °C. Following incubation, samples were centrifuged at 3000 rpm for 20 min, and the supernatants, 100 μL, were carefully collected for measurement. The degree of hemolysis in the samples was determined by measurement of the absorption of the supernatants at 540 nm using the Polarstar-Omega plate reader. 1% Triton-X100 was used as positive control for inducing 100% hemolysis. HC10 and HC50 values were determined using Prism 8 following curve fitting. The use of human blood (sourced from the Australian Red Cross Blood Service) for hemolysis assays was approved by the University of Queensland Institutional Human Research Ethics Committee, Approval Number 2014000031. All in vitro toxicity assays were performed for two independent biological replicates as an 8-point dose response of 3-fold dilution series in triplicate with the highest test concentration of 300 μg mL^−1.

Series [3] deals with HepG2 liver hepatocellular carcinoma cells. Briefly: in vitro. On the procedure:
as §2, §3

The next series in a line: in vitro. To be noted: human. The procedure:
as §2, §3

Series [4] deals with HK-2 human kidney proximal tubule cells. Briefly: in vitro. On the procedure:
as §2, §3

The next series concerns E. coli ATCC 25922. The series can be described thus: microbe, parasite or virus in culture. In kind it is cell-based, Escherichia coli. To be noted: ATCC 25922. On the procedure: Assays were performed in Mueller Hinton broth (MHB; BD, Cat. No. 211443) for bacteria, and yeast extract-peptone dextrose (YPD; Sigma-Aldrich, Y1500) for yeast. The concentrations of the peptides and comparator antibiotics/antifungals in the assay wells ranged from either 128 or 64 μg mL^−1, to 0.06 or 0.03 μg mL^−1 as a 12-point dose response plated as a 2-fold dilution series across the wells of the plate in duplicate for each independent biological replicate, using a final cell density of 5 × 10^5 CFU mL^−1 and 2.5 × 10^3 CFU mL^−1 for bacteria and yeast respectively. Final assay volumes were 100 μL per well with MICs determined visually following 18-20 h incubation at 37 °C for bacteria, 24 h incubation at 35 °C for Candida albicans, and 24 h incubation at 35 °C with resazurin addition (0.006%; Sigma-Aldrich, Cat # R7017) for a further 3 h for Cryptococcus neoformans, without shaking. Additional bacterial and yeast susceptibility assays were performed in Cation-Adjusted Mueller Hinton Broth (CAMHB; BD, Cat No. 212322) and Roswell Park Memorial Institute (RPMI) 1640 culture medium (Life Technologies Australia, Cat No. 21870092), respectively, as recommended by CLSI guidelines (M07 11th ed[36] and M27 4th ed[37]). […] However, for yeast it was determined that the YPD media was more reliable and robust between repeats and therefore MICs in this media are reported. […] Agarose MICs were determined in MHB with 1% agarose (Bioline molecular grade; Cat no: BIO-41025; high purity, high gel strength). All experiments were performed a minimum of six replicates (n ≥ 6).

[5] abbreviates: fit headed 10 min, four-parameter variable slope.
Setting [6] is: fit headed 30 min, four-parameter variable slope.
Where [7] appears, read: fit headed 60 min, four-parameter variable slope.

Values after ≈ are worked out from the molar mass of the structure shown. Read-outs that look alike come from different tables or passages of the source. Residues, ends and D or L forms follow the SMILES beside them.

As for `CCN1CCN(C(=O)N[C@@H](C(=O)N[C@@H]2C(=O)N3[C@@H]2SC(C)(C)[C@@H]3C(=O)O)c2ccccc2)C(=O)C1=O` [piperacillin], in the series with E. coli (Escherichia coli, ATCC700926|MG1655, read-out: BMD MIC, E. coli ATCC 700926 K12 (MG1655), CAMHB, mode of 6 replicates), the MIC came out at 2 µg/mL (≈ 3.86 µM). Also, in the series on E. coli K12 MG1655 (setting [5]), the “ATP release, nonlinear fit: HillSlope” value is listed as ~ -467.9; the “ATP release, nonlinear fit: IC50” value was ~ 31.42 xMIC; the “ATP release, nonlinear fit: LogIC50” value is ~ 1.497; the “ATP release, nonlinear fit: Top” value is 0.08165. The “ATP release, nonlinear fit: Bottom” value in the series with E. coli K12 MG1655 (fit headed 10 min, log(inhibitor) vs. response, variable slope (four parameters)) is recorded as 0.04818. In the series on E. coli K12 MG1655 (setting [6]), the “ATP release, nonlinear fit: Bottom” value is listed as ~ 0.04736; the “ATP release, nonlinear fit: IC50” value was ~ 0.000 xMIC; the “ATP release, nonlinear fit: Top” value is 0.07515. Besides, in the series with E. coli K12 MG1655 (setting [7]), the “ATP release, nonlinear fit: Bottom” value stood at 0.00107; the “ATP release, nonlinear fit: HillSlope” value is on record as ~ 0.6194; the “ATP release, nonlinear fit: LogIC50” value is ~ 16.74; the “ATP release, nonlinear fit: Top” value stood at 0.1665.

On to `CC[C@H](C)[C@@H]1NC(=O)[C@H](CCCNC(=N)N)NC(=O)[C@H](C(C)C)NC(=O)CNC(=O)[C@H](CC(N)=O)NC(=O)[C@H](CCCNC(=N)N)NC(=O)[C@H](Cc2ccc(O)cc2)NC(=O)[C@H](C(C)C)NC(=O)[C@@H]2CSSC[C@H](NC1=O)C(=O)N[C@@H](Cc1c[nH]cn1)C(=O)N[C@@H](CCCNC(=N)N)C(=O)N[C@@H](CCCNC(=N)N)C(=O)N[C@H](C(=O)N[C@@H](CC(N)=O)C(=O)O)CSSC[C@H](NC(=O)[C@H](Cc1ccccc1)NC(=O)CN)C(=O)N[C@@H](Cc1c[nH]c3ccccc13)C(=O)N[C@@H](CC(N)=O)C(=O)N[C@@H](C(C)C)C(=O)N2` [NZ17211] (HELM PEPTIDE1{G.F.C.W.N.V.C.V.Y.R.N.G.V.R.I.C.H.R.R.C.N}$PEPTIDE1,PEPTIDE1,3:R3-20:R3|PEPTIDE1,PEPTIDE1,7:R3-16:R3$$$V2.0), for which the “Heamolysis HC10, Mean” value in series [1] is above 300 µg/mL. Besides, in series [1] (red cells of human, 3 h), the “Heamolysis HC10” value was above 300 µg/mL. The “BMD MIC” value was above 32 µg/mL in the series with C. albicans; 64 µg/mL with C. albicans (24 h); 2 µg/mL in the series with P. aeruginosa; 4 µg/mL with C. neoformans; 2 µg/mL in the series on K. pneumoniae; 1 µg/mL in the series on S. enterica Typhi. The “BMD MIC” value amounted to 4 µg/mL in the series on A. baumannii and 16 µg/mL with L. monocytogenes. In addition, the “MIC against ESBL producing E. coli DSA 443” value with E. coli came to 2.0 µg/mL (≈ 0.784 µM). Also, the “CC50 HEK293” value in series [2] is above 300 µg/mL. For the same compound, in [2], the “CC50 HEK293, Mean” value was above 300 µg/mL. Moreover, in [3], the “CC50 HepG2” value was above 300 µg/mL. For the same compound, the “CC50 HepG2, Mean” value in series [3] is above 300 µg/mL. For the same compound, the CC50 at 24 h was above 300 µg/mL in the series “in vitro” (HEK-293 cells), above 250 µg/mL in the series “in vitro” (HK-2 cells) and above 300 µg/mL in “in vitro” (HepG2 cells). Further, the “CC50 HK2” value in series [4] is above 255 µg/mL. Also, the “CC50 HK2, Mean” value in [4] was above 250 µg/mL. Moreover, in the series on E. coli ATCC 25922, the “MIC, MHB” value came out at 0.5 µg/mL (≈ 0.196 µM).

`C[C@@H]1[C@H](O)[C@@H](C)/C=C/C=C/C=C/C=C/C=C/C=C/C=C/[C@H](O[C@@H]2O[C@H](C)[C@@H](O)[C@H](N)[C@@H]2O)C[C@@H]2O[C@](O)(C[C@@H](O)C[C@@H](O)[C@H](O)CC[C@@H](O)C[C@@H](O)CC(=O)O[C@H]1C)C[C@H](O)[C@H]2C(=O)O` [Amphroterocin B, reference compound]: the “BMD MIC” value worked out at 0.5 µg/mL in the series on C. albicans (C. albicans ATCC 90028 NCCLS 11, RPMI, mode of 6 replicates); 1 µg/mL in the series with C. albicans (C. albicans ATCC 90028 NCCLS 11, YPD, 24 h 35 °C, mode of 6 replicates); 0.5 µg/mL with C. neoformans (C. neoformans ATCC 208821 H99, RPMI, mode of 6 replicates); 0.5 µg/mL with C. neoformans (C. neoformans ATCC 208821 H99, YPD, 24 h 35 °C + resazurin 3 h, mode of 6 replicates).

`OC(Cn1cncn1)(Cn1cncn1)c1ccc(F)cc1F` [Fluconazole, reference compound]: the MIC was 1 µg/mL (≈ 3.27 µM) with C. albicans (ATCC90028, 24 h, read-out: BMD MIC); 0.5 µg/mL (≈ 1.63 µM) with C. albicans (ATCC90028, read-out: BMD MIC); 2 µg/mL (≈ 6.53 µM) in the series with C. neoformans (RPMI, mode of 6 replicates); 8 µg/mL with C. neoformans (YPD, 24 h 35 °C + resazurin 3 h, mode of 6 replicates).
